# Data reported in patent publication US8815875B2 (Merck Sharp & Dohme Corp., priority 2008, dated 2014).
# Molecular target: FABP4 (Homo sapiens, UniProt P15090)
# Test: TdF (Temperature Dependence Fluorescence) assay, thermal shift, FABP4
# Format: binding
# Text: TdF (Temperature Dependence Fluorescence) Assay for FABP3 and FABP4
# The TdF assay was mainly conducted in the 96-well based CHROMO-4 real time fluorescence plate reader (BioRad). The Sypro Orange (Sigma-Aldrich), environmentally sensitive fluorescence dye, was used to monitor the protein folding-unfolding transition. Protein-ligand binding was gauged by the change (or shift) in the unfolding transition temperature (ΔTm) acquired at protein alone with respect to protein in the presence of ligand of interest.
# The compound of interest was first prepared in DMSO stock (typical concentration: 10 mM). […] Final percentage of DMSO resided in the sample was 2%. The sample plate was heated from 30° C. to 90° C. with thermal ramping rate of 1° C./min. The fluorescence signals were acquired with excitation and emission wavelengths centered at 490 and 560 nm respectively. The instrument thermal stability was ±0.2° C.
# Theoretical basis for TdF-based ligand binding affinity constant
# In brief, the binding constant of the ligand at the Tm is expressed as below:
# [formula] where To is the midpoint of unfolding for unliganded protein and Tm is the midpoint of unfolding in presence of ligand. [LTm] is free ligand at Tm. The ΔHu and ΔCpu are the enthalpy of unfolding and heat capacity change of unfolding for the protein respectively.
# The nonlinear regression fitting in general readily reaches convergence by properly constraining the initial values for the fitting parameters (e.g. the initial “guess” for the ΔHu was constrained to 120 kcal/mol; initial Yn and mn were set to 1 and zero to best represent the melting curve along the low temperature region; negative slope of −0.5 was initially chosen for mu; initial Tm was also constrained to 50° C.).
# [formula] (see Brandts et al and Mayhood et al, shown above) where ΔHL (T) is the van't Hoff enthalpy of ligand binding at temperature T and ΔCpL is the heat capacity upon ligand binding. For simplicity, the ΔCpL and ΔHL (T) were set to zero and −7 kcal/mol respectively. […] TdCD (Temperature-dependent Circular Dichroism) Assay for FABP3/4/5
# Chain of FABP4 (P15090 whole entry, species assumed): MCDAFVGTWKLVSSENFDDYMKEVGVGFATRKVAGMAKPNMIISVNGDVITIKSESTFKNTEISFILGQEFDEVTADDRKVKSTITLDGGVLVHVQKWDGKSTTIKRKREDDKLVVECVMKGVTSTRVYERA
Structure (SMILES),Kd [nM],FABP4 TdF Kd
O=c1cc(COc2ccc(I)cc2)[nH]c2nc(-c3ccccc3)nn12 [1-30],> 500,–
N#Cc1cc(F)cc(OCc2cc(=O)n3nc(-c4ccccc4)nc3[nH]2)c1 [1-23],> 500,–
CCc1ccc(OCc2cc(=O)n3nc(-c4ccccc4)nc3[nH]2)cc1 [1-3],–,B (0.5 ≦ B < 0.001 μM)
O=c1cc(COC2CCSCC2)[nH]c2nc(-c3ccccc3)nn12 [1-79],> 500,–
Cc1ccsc1-c1nc2[nH]c(COc3cccc(Cl)c3C)cc(=O)n2n1 [1-113],> 500,–
O=c1cc(COc2cccc3c2CCCC3)[nH]c2nc(-c3ccccc3)nn12 [1-10],–,B (0.5 ≦ B < 0.001 μM)
O=c1cc(COc2cccc(F)c2)[nH]c2nc(-c3ccccc3)nn12 [1-93],–,B (0.5 ≦ B < 0.001 μM)
CCCCc1cn(Cc2cc(=O)n3nc(-c4ccccc4)nc3[nH]2)c2cccc(Cl)c12 [1-143],–,B (0.5 ≦ B < 0.001 μM)
O=c1cc(CN2Cc3ccccc3C2)[nH]c2nc(-c3ccccc3)nn12 [1-14],> 500,–
N#Cc1c(Cl)cccc1OCc1cc(=O)n2nc(-c3ccccc3)nc2[nH]1 [1-24],–,B (0.5 ≦ B < 0.001 μM)
Cn1cc2cccc(NCc3cc(=O)n4nc(-c5ccccc5)nc4[nH]3)c2n1 [1-105],> 500,–
CC1(OCc2cc(=O)n3nc(-c4ccccc4)nc3[nH]2)CCCCC1 [1-150],–,B (0.5 ≦ B < 0.001 μM)
Cn1cc(Br)c(NCc2cc(=O)n3nc(-c4ccccc4)nc3[nH]2)n1 [1-146],> 500,–
CC(=O)N1CCC(OCc2cc(=O)n3nc(-c4ccccc4)nc3[nH]2)CC1 [1-49],> 500,–
CN(Cc1cc(=O)n2nc(-c3ccccc3)nc2[nH]1)c1cccnc1Br [1-51],> 500,–
O=c1cc(COc2cc(Cl)cc(Cl)c2)[nH]c2nc(-c3ccccc3)nn12 [1-86],–,B (0.5 ≦ B < 0.001 μM)
O=c1cc(COc2cccc(OC(F)(F)F)c2)[nH]c2nc(-c3ccccc3)nn12 [1-64],> 500,–
O=c1cc(COc2ccccc2OC(F)(F)F)[nH]c2nc(-c3ccccc3)nn12 [1-18],–,B (0.5 ≦ B < 0.001 μM)
O=c1cc(COc2cccc3ncccc23)[nH]c2nc(-c3ccccc3)nn12 [1-80],–,B (0.5 ≦ B < 0.001 μM)
CCc1ccc(OCc2cc(=O)n3nc(-c4ccccc4)nc3[nH]2)c(OC)c1 [1-69],–,B (0.5 ≦ B < 0.001 μM)
CC(C)(C)OCc1cc(=O)n2nc(-c3ccccc3)nc2[nH]1 [1-40],> 500,–

# Next, values leading:
Kd [nM],FABP4 TdF Kd,Structure (SMILES)
–,B (0.5 ≦ B < 0.001 μM),COc1cccc(C2(NC(=O)C3(OCc4cc(=O)n5nc(-c6ccccc6)nc5[nH]4)CCCCC3)CC2)c1 [48-71]
–,B (0.5 ≦ B < 0.001 μM),CN(CCC1CC1)C(=O)C1(OCc2cc(=O)n3nc(-c4ccccc4)nc3[nH]2)CCCCC1 [48-77]
–,B (0.5 ≦ B < 0.001 μM),CC(=O)c1c(Cl)cccc1OCc1cc(=O)n2nc(-c3ccccc3)nc2[nH]1 [31-2]
–,B (0.5 ≦ B < 0.001 μM),"O=C(NCC1(O)CCCCC1)c1c(Cl)cccc1OCc1cc(=O)n2nc(-c3ccccc3)nc2[nH]1 [47-13, 2-chloro-N-((1-hydroxycyclohexyl)methyl)-6-((7-oxo-2-phenyl-4,7-dihydro-[1,2,4]triazolo[1,5-a]pyrimidin-5-yl)methoxy)benzamide]"
–,B (0.5 ≦ B < 0.001 μM),O=C(NC1CCCCC1)C1(OCc2cc(=O)n3nc(-c4ccccc4)nc3[nH]2)CCCCC1 [48-40]
> 500,–,CC(C)(C)OC(=O)N1CCC(OCc2cc(=O)n3nc(-c4ccccc4)nc3[nH]2)(C(=O)NCC2CCC2)CC1 [48-22]
> 500,–,CN(CC1CC1)C(=O)c1c(Cl)cccc1OCc1cc(=O)n2nc(-c3ccccc3)nc2[nH]1 [47-46]
> 500,–,Cc1c(Cl)cccc1OCc1cc(=O)n2nc(-c3ccccc3Cl)nc2[nH]1 [25-7]
–,B (0.5 ≦ B < 0.001 μM),CN(C(=O)c1ccccc1OCc1cc(=O)n2nc(-c3ccccc3)nc2[nH]1)C1CCCCC1 [47-62]
–,B (0.5 ≦ B < 0.001 μM),O=C(NCC1CC1)c1ccccc1OCc1cc(=O)n2nc(-c3ccccc3)nc2[nH]1 [47-55]
–,B (0.5 ≦ B < 0.001 μM),CCc1ccc(SCc2cc(=O)n3nc(-c4ccccc4)nc3[nH]2)cc1 [12-1]
–,B (0.5 ≦ B < 0.001 μM),CN(CCc1cccc(Cl)c1)C(=O)C1(OCc2cc(=O)n3nc(-c4ccccc4)nc3[nH]2)CCCCC1 [48-29]
–,B (0.5 ≦ B < 0.001 μM),O=C(NCC1CCC1)C1(OCc2cc(=O)n3nc(-c4ccccc4)nc3[nH]2)CCCCC1 [48-20]
–,B (0.5 ≦ B < 0.001 μM),COc1ccccc1C1(CNC(=O)c2c(Cl)cccc2OCc2cc(=O)n3nc(-c4ccccc4)nc3[nH]2)CCC1 [47-23]
≤ 1,–,"O=C(NCC1(c2ccc(Cl)cc2)CC1)c1c(Cl)cccc1OCc1cc(=O)n2nc(-c3ccccc3)nc2[nH]1 [47-4, 2-chloro-N-((1-(4-chlorophenyl)cyclopropyl)methyl)-6-((7-oxo-2-phenyl-4,7-dihydro-[1,2,4]triazolo[1,5-a]pyrimidin-5-yl)methoxy)benzamide]"
–,B (0.5 ≦ B < 0.001 μM),"O=C(NCC1CCC1)c1c(Cl)cccc1OCc1cc(=O)n2nc(-c3ccccc3)nc2[nH]1 [47-5, 2-chloro-N-(cyclobutylmethyl)-6-((7-oxo-2-phenyl-4,7-dihydro-[1,2,4]triazolo[1,5-a]pyrimidin-5-yl)methoxy)benzamide]"
> 500,–,CCc1ccc(NCc2cc(=O)n3ncnc3[nH]2)cc1 [4-3]
–,B (0.5 ≦ B < 0.001 μM),O=C(NCCC1CC1)C1(OCc2cc(=O)n3nc(-c4ccccc4)nc3[nH]2)CCCCC1 [48-26]
–,B (0.5 ≦ B < 0.001 μM),COc1cccc(C2(CNC(=O)C3(OCc4cc(=O)n5nc(-c6ccccc6)nc5[nH]4)CCCCC3)CC2)c1 [48-70]
–,B (0.5 ≦ B < 0.001 μM),O=C(NCC1CCC1)c1ccccc1OCc1cc(=O)n2nc(-c3ccccc3)nc2[nH]1 [47-56]

Kd [nM],FABP4 TdF Kd,Structure (SMILES)
–,B (0.5 ≦ B < 0.001 μM),O=C(NCC1(c2ccc(Cl)cc2)CC1)C1CCCCC1OCc1cc(=O)n2nc(-c3ccccc3)nc2[nH]1 (stereo not drawn) [48-76]
≤ 1,–,"COc1cccc(C2(CNC(=O)c3c(Cl)cccc3OCc3cc(=O)n4nc(-c5ccccc5)nc4[nH]3)CCC2)c1 [47-38, 2-chloro-N-((1-(3-methoxyphenyl)cyclobutyl)methyl)-6-((7-oxo-2-phenyl-4,7-dihydro-[1,2,4]triazolo[1,5-a]pyrimidin-5-yl)methoxy)benzamide]"
> 500,–,O=C(N1CCOCC1)C1(OCc2cc(=O)n3nc(-c4ccccc4)nc3[nH]2)CCCCC1 [48-19]
≤ 1,–,"COc1ccccc1C1(NC(=O)C2(OCc3cc(=O)n4nc(-c5ccccc5)nc4[nH]3)CCCCC2)CC1 [48-13, N-(1-(2-methoxyphenyl)cyclopropyl)-1-((7-oxo-2-phenyl-4,7-dihydro-[1,2,4]triazolo[1,5-a]pyrimidin-5-yl)methoxy)cyclohexanecarboxamide]"
≤ 1,–,"O=C(NC1(c2cccc(Cl)c2)CC1)C1(OCc2cc(=O)n3nc(-c4ccccc4)nc3[nH]2)CCCCC1 [48-9, N-(1-(3-chlorophenyl)cyclopropyl)-1-((7-oxo-2-phenyl-4,7-dihydro-[1,2,4]triazolo[1,5-a]pyrimidin-5-yl)methoxy)cyclohexanecarboxamide]"
–,B (0.5 ≦ B < 0.001 μM),O=C(NCC1(c2ccccc2Cl)CC1)C1(OCc2cc(=O)n3nc(-c4ccccc4)nc3[nH]2)CCCCC1 [48-14]
> 500,–,Cc1c(Cl)cccc1NC(=O)c1cc(=O)n2nc(-c3ccccc3)nc2[nH]1 [11-3]
> 500,–,CCc1ccc(OCc2[nH]c3ncnn3c(=O)c2F)cc1 [7-2]
> 500,–,Cn1ccc(NC(=O)c2ccccc2OCc2cc(=O)n3nc(-c4ccccc4)nc3[nH]2)n1 [47-57]
> 500,–,CCc1ccc(OCc2cc(=O)n3ncnc3[nH]2)cc1 [7-1]
–,B (0.5 ≦ B < 0.001 μM),COCCNC(=O)C1(OCc2cc(=O)n3nc(-c4ccccc4)nc3[nH]2)CCCCC1 [48-24]
–,B (0.5 ≦ B < 0.001 μM),O=C(NCC1(O)CCOCC1)C1(OCc2cc(=O)n3nc(-c4ccccc4)nc3[nH]2)CCCCC1 [48-61]
–,B (0.5 ≦ B < 0.001 μM),CC1(C(=O)Nc2c(Cl)cccc2OCc2cc(=O)n3nc(-c4ccccc4)nc3[nH]2)CC1 [49-5]
> 500,–,CCc1ccc(OCc2cc(=O)n3nc(Cc4ccccc4)nc3[nH]2)cc1 [8-11]
–,B (0.5 ≦ B < 0.001 μM),CC(C)(CNC(=O)C1(OCc2cc(=O)n3nc(-c4ccccc4)nc3[nH]2)CCCCC1)N1CCOCC1 [48-58]
–,B (0.5 ≦ B < 0.001 μM),O=C(NCC1(CO)CC1)c1ccccc1OCc1[nH]c2nc(-c3ccccc3)nn2c(=O)c1Cl [24-16]
–,B (0.5 ≦ B < 0.001 μM),O=C(NCCO)C1(OCc2cc(=O)n3nc(-c4ccccc4)nc3[nH]2)CCCCC1 [48-17]
≤ 1,–,COc1ccccc1C1(CNC(=O)c2ccccc2OCc2[nH]c3nc(-c4ccccc4)nn3c(=O)c2Cl)CC1 [24-18]
–,B (0.5 ≦ B < 0.001 μM),O=C(NC1(CO)CCCCC1)C1(OCc2cc(=O)n3nc(-c4ccccc4)nc3[nH]2)CCCCC1 [48-67]
